pIC50: −log10 of the molar value.
Legend:
[1] = biological target: T1, C-C chemokine receptor type 10 (Homo sapiens, UniProt P46092); test: Antagonist activity at human CCR10 expressed in CHOK1 cells coexpressing aequorin/Galphaq assessed as inhibition of human CCL27-dependent calcium flux in presence of coelenterazine H by chemiluminescence assay; type: functional, cell-based, CHO-K1; settings: for IC50: read-out: pIC50 (converted)
T1 sequence (P46092 whole entry): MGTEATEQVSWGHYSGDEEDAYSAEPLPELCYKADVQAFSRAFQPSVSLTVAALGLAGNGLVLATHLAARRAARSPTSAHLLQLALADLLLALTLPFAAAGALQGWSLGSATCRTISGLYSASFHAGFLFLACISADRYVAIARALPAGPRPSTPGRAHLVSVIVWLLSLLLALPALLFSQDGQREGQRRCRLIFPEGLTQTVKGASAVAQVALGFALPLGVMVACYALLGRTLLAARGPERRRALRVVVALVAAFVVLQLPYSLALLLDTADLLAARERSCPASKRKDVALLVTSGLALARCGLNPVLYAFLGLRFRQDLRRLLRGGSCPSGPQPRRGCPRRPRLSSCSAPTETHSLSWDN

[2] = biological target: T2, C-C chemokine receptor type 10 (Mus musculus, UniProt Q9JL21); test: Antagonist activity at mouse CCR10 expressed in CHOK1 cells coexpressing aequorin/Galphaq assessed as inhibition of CCL27-dependent calcium flux in presence of coelenterazine H by chemiluminescence assay; type: functional, cell-based, CHO-K1
T2 sequence (Q9JL21 whole entry): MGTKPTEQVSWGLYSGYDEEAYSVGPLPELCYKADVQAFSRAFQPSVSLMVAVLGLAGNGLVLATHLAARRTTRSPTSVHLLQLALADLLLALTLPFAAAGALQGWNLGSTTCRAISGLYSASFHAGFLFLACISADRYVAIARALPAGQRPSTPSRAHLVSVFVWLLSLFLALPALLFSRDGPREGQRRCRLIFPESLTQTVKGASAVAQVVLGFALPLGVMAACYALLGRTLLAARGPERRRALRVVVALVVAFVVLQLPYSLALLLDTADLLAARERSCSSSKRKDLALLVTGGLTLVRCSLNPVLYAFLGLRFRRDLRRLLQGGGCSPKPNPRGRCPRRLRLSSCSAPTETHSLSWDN

[3] = biological target: T1, C-C chemokine receptor type 10; test: Antagonist activity at human CCR10 expressed in CHOK1 cells coexpressing aequorin/Galphaq assessed as inhibition of CCL27-dependent calcium flux in presence of coelenterazine H by FLIPR assay; type: functional, cell-based, CHO-K1
[4] = organism: Rattus norvegicus; test: Binding affinity to rat 5-HT1 receptor at 10 uM relative to control
[5] = organism: Homo sapiens; test: Binding affinity to human nicotinic acetylcholine receptor at 10 uM relative to control
[6] = biological target: Adrenergic receptor alpha-2 (Rattus norvegicus) (UniProt P22086+P19328+P22909); test: Binding affinity to rat adrenergic alpha2 receptor at 10 uM relative to control
[7] = biological target: Adrenergic receptor alpha-1 (Rattus norvegicus) (UniProt P15823+P23944+P43140); test: Binding affinity to rat adrenergic alpha1 receptor at 10 uM relative to control
[8] = organism: Homo sapiens; test: Binding affinity to human IL-8 receptor at 10 uM relative to control
[9] = organism: Rattus norvegicus; test: Binding affinity to rat GABA-B receptor at 10 uM relative to control
[10] = organism: Rattus norvegicus; test: Binding affinity to rat GABA-A receptor at 10 uM relative to control
[11] = biological target: 5-hydroxytryptamine receptor 3A (Homo sapiens) (UniProt P46098); test: Binding affinity to human 5-HT3 receptor at 10 uM relative to control
[12] = biological target: Histamine H2 receptor (Homo sapiens) (UniProt P25021); test: Binding affinity to human histamine H2 receptor at 10 uM relative to control
[13] = biological target: C-C chemokine receptor type 4 (Homo sapiens) (UniProt P51679); test: Antagonist activity at human CCR4 assessed as inhibition of CCL22-induced calcium flux at 10 uM relative to control; type: functional
[14] = biological target: B2 bradykinin receptor (Homo sapiens) (UniProt P30411); test: Binding affinity to human B2 bradykinin receptor at 10 uM relative to control
[15] = biological target: Type-1 angiotensin II receptor (Homo sapiens) (UniProt P30556); test: Binding affinity to human AT1 receptor at 10 uM relative to control
[16] = biological target: D(3) dopamine receptor (Homo sapiens) (UniProt P35462); test: Binding affinity to human dopamine D3 receptor at 10 uM relative to control
[17] = test system: Mus musculus; test: Antiinflammatory activity in Balb/C mouse model of contact hypersensitivity assessed as inhibition of DNFB-stimulated ear swelling administered ip bid at 0 and 8 hrs measured 24 hrs post DNFB stimulation; type: functional, organism-based
[18] = organism: Rattus norvegicus; test: Binding affinity to rat muscarinic acetylcholine receptor at 10 uM relative to control
[19] = biological target: D(2) dopamine receptor (Homo sapiens) (UniProt P14416); test: Binding affinity to human dopamine D2L receptor at 10 uM relative to control
[20] = biological target: Adrenergic receptor beta (Rattus norvegicus) (UniProt P18090+P10608+P26255); test: Binding affinity to rat adrenergic beta receptor at 10 uM relative to control
[21] = organism: Rattus norvegicus; test: Binding affinity to rat glutamate receptor at 10 uM relative to control
[22] = biological target: 5-hydroxytryptamine receptor 2A (Rattus norvegicus) (UniProt P14842); test: Binding affinity to rat 5-HT2 receptor at 10 uM relative to control
[23] = biological target: Histamine H1 receptor (Homo sapiens) (UniProt P35367); test: Binding affinity to human histamine H1 receptor at 10 uM relative to control
[24] = biological target: D(1A) dopamine receptor (Homo sapiens) (UniProt P21728); test: Binding affinity to human dopamine D1 receptor at 10 uM relative to control
[25] = Protein binding in Balb/C mouse plasma at 100 mg/kg, ip bid; type: ADME, organism-based; settings: in vivo
[26] = Plasma concentration in Balb/C mouse at 30 mg/kg, ip bid measured after 1 hr; type: ADME, organism-based; settings: in vivo, 1 h
[27] = Plasma concentration in Balb/C mouse at 100 mg/kg, ip bid measured after 1 hr; type: ADME, organism-based; settings: in vivo
[28] = biological target: T1, C-C chemokine receptor type 10; test: Antagonist activity at human CCR10 expressed in CHOK1 cells coexpressing aequorin/Galphaq assessed as inhibition of human CCL28-dependent calcium flux by chemiluminescence assay; type: functional, cell-based, CHO-K1
[29] = biological target: T1, C-C chemokine receptor type 10; test: Antagonist activity at human CCR10 expressed in CHOK1 cells coexpressing aequorin/Galphaq assessed as inhibition of human CCL28-dependent calcium flux by FLIPR assay; type: functional, cell-based, CHO-K1

Sequence of D(2) dopamine receptor (Homo sapiens) (P14416 whole entry): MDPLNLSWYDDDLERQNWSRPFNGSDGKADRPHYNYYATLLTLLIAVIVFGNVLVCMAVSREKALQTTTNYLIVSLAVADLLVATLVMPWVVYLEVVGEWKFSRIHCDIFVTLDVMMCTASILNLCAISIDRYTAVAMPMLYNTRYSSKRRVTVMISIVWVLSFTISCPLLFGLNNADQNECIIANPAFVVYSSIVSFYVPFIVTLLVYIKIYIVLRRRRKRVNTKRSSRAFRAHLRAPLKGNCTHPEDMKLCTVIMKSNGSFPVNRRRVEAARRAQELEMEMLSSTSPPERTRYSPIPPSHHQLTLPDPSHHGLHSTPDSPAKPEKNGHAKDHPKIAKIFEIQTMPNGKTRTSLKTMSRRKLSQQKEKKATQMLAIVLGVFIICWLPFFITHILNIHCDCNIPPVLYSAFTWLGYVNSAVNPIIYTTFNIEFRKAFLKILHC
Sequence of Histamine H2 receptor (Homo sapiens) (P25021 whole entry): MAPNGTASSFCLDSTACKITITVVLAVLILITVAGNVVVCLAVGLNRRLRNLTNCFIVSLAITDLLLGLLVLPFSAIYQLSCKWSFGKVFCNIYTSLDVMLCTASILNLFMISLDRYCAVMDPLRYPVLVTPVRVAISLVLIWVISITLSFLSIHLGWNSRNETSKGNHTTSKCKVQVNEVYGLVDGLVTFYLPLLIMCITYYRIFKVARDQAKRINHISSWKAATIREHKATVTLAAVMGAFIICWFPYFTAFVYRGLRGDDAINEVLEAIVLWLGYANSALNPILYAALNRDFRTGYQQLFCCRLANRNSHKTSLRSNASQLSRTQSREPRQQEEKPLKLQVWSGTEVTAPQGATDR
Sequence of C-C chemokine receptor type 4 (Homo sapiens) (P51679 whole entry): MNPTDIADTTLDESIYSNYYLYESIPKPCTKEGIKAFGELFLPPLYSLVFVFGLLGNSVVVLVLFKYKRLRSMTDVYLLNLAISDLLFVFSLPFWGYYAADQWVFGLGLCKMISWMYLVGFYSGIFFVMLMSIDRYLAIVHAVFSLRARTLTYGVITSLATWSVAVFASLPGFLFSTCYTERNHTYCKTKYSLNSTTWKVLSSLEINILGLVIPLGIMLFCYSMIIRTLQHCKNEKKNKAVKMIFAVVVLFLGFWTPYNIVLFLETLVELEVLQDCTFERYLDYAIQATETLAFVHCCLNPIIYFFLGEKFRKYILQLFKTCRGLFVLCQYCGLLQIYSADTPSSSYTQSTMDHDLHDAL
Sequence of D(1A) dopamine receptor (Homo sapiens) (P21728 whole entry): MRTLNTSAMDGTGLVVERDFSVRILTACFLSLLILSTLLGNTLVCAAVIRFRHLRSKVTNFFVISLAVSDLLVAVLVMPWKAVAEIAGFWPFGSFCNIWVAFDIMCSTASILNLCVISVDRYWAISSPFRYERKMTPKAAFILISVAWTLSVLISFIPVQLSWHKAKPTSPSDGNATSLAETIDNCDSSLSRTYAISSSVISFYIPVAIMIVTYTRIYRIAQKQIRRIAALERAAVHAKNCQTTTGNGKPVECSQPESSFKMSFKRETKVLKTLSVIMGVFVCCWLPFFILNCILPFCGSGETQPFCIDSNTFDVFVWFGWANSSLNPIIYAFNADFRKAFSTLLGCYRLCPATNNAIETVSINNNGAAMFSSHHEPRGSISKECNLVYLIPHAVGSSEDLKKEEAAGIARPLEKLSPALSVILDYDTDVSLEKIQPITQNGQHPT
Sequence of Histamine H1 receptor (Homo sapiens) (P35367 whole entry): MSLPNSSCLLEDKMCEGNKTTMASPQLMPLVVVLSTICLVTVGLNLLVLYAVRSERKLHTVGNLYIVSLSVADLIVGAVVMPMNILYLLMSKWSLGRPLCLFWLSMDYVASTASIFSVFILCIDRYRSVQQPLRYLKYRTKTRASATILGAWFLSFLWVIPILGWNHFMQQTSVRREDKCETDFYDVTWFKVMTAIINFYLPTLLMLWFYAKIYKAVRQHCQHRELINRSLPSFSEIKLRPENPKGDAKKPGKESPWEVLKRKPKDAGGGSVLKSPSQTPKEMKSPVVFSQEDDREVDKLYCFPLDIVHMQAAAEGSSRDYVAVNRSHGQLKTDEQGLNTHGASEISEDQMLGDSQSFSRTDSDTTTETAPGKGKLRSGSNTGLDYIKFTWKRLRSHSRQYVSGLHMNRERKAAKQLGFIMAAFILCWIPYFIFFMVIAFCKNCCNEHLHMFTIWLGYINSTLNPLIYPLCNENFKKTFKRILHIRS
Sequence of B2 bradykinin receptor (Homo sapiens) (P30411 whole entry): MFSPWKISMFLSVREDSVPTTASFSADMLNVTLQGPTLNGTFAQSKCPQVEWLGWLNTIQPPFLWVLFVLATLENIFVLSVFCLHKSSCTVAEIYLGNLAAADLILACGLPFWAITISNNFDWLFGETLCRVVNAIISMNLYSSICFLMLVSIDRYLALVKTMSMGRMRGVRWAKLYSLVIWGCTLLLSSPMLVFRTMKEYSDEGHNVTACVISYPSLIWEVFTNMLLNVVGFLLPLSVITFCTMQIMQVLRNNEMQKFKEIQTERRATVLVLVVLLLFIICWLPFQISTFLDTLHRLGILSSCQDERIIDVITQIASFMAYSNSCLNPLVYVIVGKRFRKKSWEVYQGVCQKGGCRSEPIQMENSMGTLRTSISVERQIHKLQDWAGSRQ
Sequence of 5-hydroxytryptamine receptor 3A (Homo sapiens) (P46098 whole entry): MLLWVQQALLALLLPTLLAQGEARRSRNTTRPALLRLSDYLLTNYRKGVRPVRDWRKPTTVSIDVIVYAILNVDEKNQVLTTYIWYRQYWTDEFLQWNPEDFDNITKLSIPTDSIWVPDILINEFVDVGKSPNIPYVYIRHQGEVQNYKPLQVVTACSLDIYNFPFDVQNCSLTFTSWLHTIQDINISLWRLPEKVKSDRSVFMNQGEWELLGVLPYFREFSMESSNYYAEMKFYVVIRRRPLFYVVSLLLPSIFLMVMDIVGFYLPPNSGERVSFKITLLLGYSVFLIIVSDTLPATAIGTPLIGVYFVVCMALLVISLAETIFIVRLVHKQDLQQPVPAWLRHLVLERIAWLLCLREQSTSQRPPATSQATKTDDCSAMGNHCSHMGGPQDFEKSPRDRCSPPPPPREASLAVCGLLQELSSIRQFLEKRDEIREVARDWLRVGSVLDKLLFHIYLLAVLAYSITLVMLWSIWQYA
Sequence of Type-1 angiotensin II receptor (Homo sapiens) (P30556 whole entry): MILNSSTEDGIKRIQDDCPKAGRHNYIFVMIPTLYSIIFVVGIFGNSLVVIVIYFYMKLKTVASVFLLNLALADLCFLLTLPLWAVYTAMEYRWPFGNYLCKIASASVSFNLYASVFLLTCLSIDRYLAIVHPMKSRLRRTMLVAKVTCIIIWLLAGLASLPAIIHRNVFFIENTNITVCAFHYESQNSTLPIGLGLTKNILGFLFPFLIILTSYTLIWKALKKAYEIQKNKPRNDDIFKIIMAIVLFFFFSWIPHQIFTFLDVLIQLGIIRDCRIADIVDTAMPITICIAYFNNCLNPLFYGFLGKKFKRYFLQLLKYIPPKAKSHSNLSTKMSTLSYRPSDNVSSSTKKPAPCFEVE
Sequence of D(3) dopamine receptor (Homo sapiens) (P35462 whole entry): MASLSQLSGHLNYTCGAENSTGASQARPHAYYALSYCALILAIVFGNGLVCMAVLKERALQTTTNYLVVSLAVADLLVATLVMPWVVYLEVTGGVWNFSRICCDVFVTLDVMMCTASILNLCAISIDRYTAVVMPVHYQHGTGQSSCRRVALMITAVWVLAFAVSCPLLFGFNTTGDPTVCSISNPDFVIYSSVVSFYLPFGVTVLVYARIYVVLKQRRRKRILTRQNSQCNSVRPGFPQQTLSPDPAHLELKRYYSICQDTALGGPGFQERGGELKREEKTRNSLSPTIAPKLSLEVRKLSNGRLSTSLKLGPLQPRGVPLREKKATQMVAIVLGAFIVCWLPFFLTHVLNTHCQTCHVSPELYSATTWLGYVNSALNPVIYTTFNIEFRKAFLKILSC
Sequence of 5-hydroxytryptamine receptor 2A (Rattus norvegicus) (P14842 whole entry): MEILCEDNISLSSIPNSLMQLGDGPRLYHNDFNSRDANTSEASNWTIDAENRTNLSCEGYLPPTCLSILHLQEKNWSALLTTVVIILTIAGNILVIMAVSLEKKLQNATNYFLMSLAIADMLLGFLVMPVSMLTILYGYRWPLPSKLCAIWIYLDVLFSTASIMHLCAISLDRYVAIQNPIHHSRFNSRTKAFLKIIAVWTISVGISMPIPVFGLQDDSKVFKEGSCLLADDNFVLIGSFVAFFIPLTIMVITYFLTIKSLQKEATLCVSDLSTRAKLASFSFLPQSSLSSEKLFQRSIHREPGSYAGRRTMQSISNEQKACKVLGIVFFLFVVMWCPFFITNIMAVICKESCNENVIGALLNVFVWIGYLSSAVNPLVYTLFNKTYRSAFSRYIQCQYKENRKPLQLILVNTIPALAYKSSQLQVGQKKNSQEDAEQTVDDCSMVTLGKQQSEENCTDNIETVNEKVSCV

CC1CCCN(C(=O)C(CCn2cccc2C#N)NS(=O)(=O)c2cc(Cl)c(N)c(Cl)c2)C1 (stereo not drawn)
IC50 [1]: 631 nM

CC1CCN(C(=O)C(CCn2nccn2)NS(=O)(=O)c2cc(Cl)c(N)c(Cl)c2)CC1 (stereo not drawn)
IC50 [1]: 3160 nM

CC1CCN(C(=O)C(CCn2cccc2C#N)NS(=O)(=O)c2c(N)cc(Cl)cc2Cl)CC1 (stereo not drawn)
IC50 [1]: 39.8 nM

CC1CCN(C(=O)C(CCn2cccc2C#N)NS(=O)(=O)c2cc(Cl)c(N)cc2Cl)CC1 (stereo not drawn)
IC50 [1]: 63.1 nM

CC1CCN(C(=O)C(CCn2ccnn2)NS(=O)(=O)c2cc(Cl)c(N)c(Cl)c2)CC1 (stereo not drawn)
IC50 [1]: > 20000 nM

CC1CCN(C(=O)C(CCn2cccc2C#N)NS(=O)(=O)c2cccc3cc[nH]c23)CC1 (stereo not drawn)
pIC50 [2]: 5.10 | IC50 [1]: 251 nM

CC1CCN(C(=O)C(CCc2ccccc2Cl)NS(=O)(=O)c2cc(Cl)c(N)c(Cl)c2)CC1 (stereo not drawn)
IC50 [1]: 126 nM

CC1CCN(C(=O)[C@H](CCc2ccccc2)NS(=O)(=O)c2cc(Cl)c(N)c(Cl)c2)CC1
IC50 [1]: > 10000 nM

N#Cc1cccn1CCC(NS(=O)(=O)c1cccc2[nH]ccc12)C(=O)N1CCCCC1 (stereo not drawn)
IC50 [1]: 10 nM

CN(C)C(=O)C(CCn1cccc1C#N)NS(=O)(=O)c1cc(Cl)c(N)c(Cl)c1 (stereo not drawn)
IC50 [1]: > 10000 nM

CN(C)C(=O)C(CCn1cccc1C#N)NS(=O)(=O)c1cccc2[nH]ccc12 (stereo not drawn)
IC50 [1]: 3980 nM

CC1CCN(C(=O)C(CCn2cccc2C#N)NS(=O)(=O)c2cccc3c2ccn3C)CC1 (stereo not drawn)
pIC50 [2]: 5.20 | IC50 [1]: 126 nM

Cc1ccc(S(=O)(=O)NC(CCn2cccc2C#N)C(=O)N2CCC(C)CC2)c(C)c1N (stereo not drawn)
IC50 [1]: 100 nM

N#Cc1cccn1CCC(NS(=O)(=O)c1cc(Cl)c(N)c(Cl)c1)C(=O)N1CCCC1 (stereo not drawn)
IC50 [1]: > 10000 nM

CC1CCN(C(=O)C(CCn2ccnc2Cl)NS(=O)(=O)c2cc(Cl)c(N)c(Cl)c2)CC1 (stereo not drawn)
pIC50 [2]: < 4.70 | IC50 [1]: 501 nM

N#Cc1cccn1CCC(NS(=O)(=O)c1cccc2[nH]ccc12)C(=O)N1CCC(O)CC1 (stereo not drawn)
IC50 [1]: 126 nM

CC1CCN(C(=O)C(CCn2ccnc2)NS(=O)(=O)c2cc(Cl)c(N)c(Cl)c2)CC1 (stereo not drawn)
pIC50 [3]: < 4.70

CC1CCCN(C(=O)C(CCn2cccc2C#N)NS(=O)(=O)c2cccc3[nH]ccc23)C1 (stereo not drawn)
IC50 [1]: 63.1 nM

N#Cc1cccn1CCC(NS(=O)(=O)c1cc(Cl)c(N)c(Cl)c1)C(=O)N1CCCCC1 (stereo not drawn)
IC50 [1]: 158 nM

CC1CCN(C(=O)C(CCn2cccc2C#N)NS(=O)(=O)c2ccc3cc[nH]c3c2)CC1 (stereo not drawn)
pIC50 [2]: 6.00 | IC50 [1]: 7.94 nM

CC1CCN(C(=O)C(CCn2cccc2C#N)NS(=O)(=O)c2cccc3[nH]ccc23)CC1 (stereo in doubt; form 1)
Activity [4]: 19% | Activity [5]: < 10% | Activity [6]: < 10% | Activity [7]: < 10% | Activity [8]: < 10% | Activity [9]: < 10% | Activity [10]: < 10% | Activity [11]: < 10% | Activity [12]: < 10% | inhibition [13]: < 10% | Activity [14]: < 10% | Activity [15]: < 10% | Activity [16]: < 10% | inhibition [17]: Dose-dependent effect | Activity [18]: 22% | Activity [19]: < 10% | Activity [20]: < 10% | Activity [21]: < 10% | Activity [22]: < 10% | Activity [23]: < 10% | Activity [24]: < 10%

CC1CCN(C(=O)C(CCn2cccn2)NS(=O)(=O)c2cc(Cl)c(N)c(Cl)c2)CC1 (stereo not drawn)
IC50 [1]: 1580 nM

CC1CCCCN1C(=O)C(CCn1cccc1C#N)NS(=O)(=O)c1cccc2[nH]ccc12 (stereo not drawn)
IC50 [1]: 20 nM

CC1CCN(C(=O)[C@@H](CCn2cccc2C#N)NS(=O)(=O)c2cc(Cl)c(N)c(Cl)c2)CC1
IC50 [1]: 7.94 nM

CC1CCN(C(=O)C(CCn2cccc2C#N)NS(=O)(=O)c2cccc3ccccc23)CC1 (stereo not drawn)
IC50 [1]: 50.1 nM

CC1CCN(C(=O)C(CCn2cncn2)NS(=O)(=O)c2cc(Cl)c(N)c(Cl)c2)CC1 (stereo not drawn)
IC50 [1]: > 20000 nM

CC1CCN(C(=O)C(CCn2cccc2C#N)NS(=O)(=O)c2ccccc2)CC1 (stereo not drawn)
pIC50 [2]: < 4.70 | IC50 [1]: 1260 nM

CC1CCN(C(=O)[C@@H](CCc2ccccc2)NS(=O)(=O)c2cc(Cl)c(N)c(Cl)c2)CC1
pIC50 [2]: 5.00 | IC50 [1]: 631 nM

CC1CCN(C(=O)[C@H](CCn2cccc2C#N)NS(=O)(=O)c2cc(Cl)c(N)c(Cl)c2)CC1
IC50 [1]: 15800 nM

CC1CCN(C(=O)C(CCn2nccc2Cl)NS(=O)(=O)c2cc(Cl)c(N)c(Cl)c2)CC1 (stereo not drawn)
IC50 [1]: 251 nM

CC1CCN(C(=O)[C@@H](CCn2ccnc2[N+](=O)[O-])NS(=O)(=O)c2cc(Cl)c(N)c(Cl)c2)CC1
IC50 [1]: 501 nM

N#Cc1cccn1CCC(NS(=O)(=O)c1cccc2[nH]ccc12)C(=O)N1CCC(C(F)(F)F)CC1 (stereo not drawn)
IC50 [1]: 10 nM

N#Cc1cccn1CCC(NS(=O)(=O)c1cccc2[nH]ccc12)C(=O)N1CCCCCC1 (stereo not drawn)
IC50 [1]: 25.1 nM

CC1CCCCN1C(=O)C(CCn1cccc1C#N)NS(=O)(=O)c1cc(Cl)c(N)c(Cl)c1 (stereo not drawn)
IC50 [1]: 794 nM

N#Cc1cccn1CCC(NS(=O)(=O)c1cc(Cl)c(N)c(Cl)c1)C(=O)N1CCCCCC1 (stereo not drawn)
IC50 [1]: 251 nM

CC1CCN(C(=O)[C@H](CCn2ccnc2[N+](=O)[O-])NS(=O)(=O)c2cc(Cl)c(N)c(Cl)c2)CC1
IC50 [1]: > 20000 nM

CC1CCN(C(=O)C(CCn2cccc2C#N)NS(=O)(=O)c2ccc3[nH]ccc3c2)CC1 (stereo not drawn)
IC50 [1]: 200 nM

CC1CCN(C(=O)C(CCn2cccc2C#N)NS(=O)(=O)c2cccc3[nH]ccc23)CC1 (stereo in doubt; form 2)
pIC50 [2]: 4.80 | PPB [25]: 99% | concentration [26]: 3.2 µM | concentration [27]: 18 µM | IC50 [1]: 3160 nM

N#Cc1cccn1CCC(NS(=O)(=O)c1cc(Cl)c(N)c(Cl)c1)C(=O)N1CCC(C(F)(F)F)CC1 (stereo not drawn)
IC50 [1]: 398 nM

CC1CCN(C(=O)C(CCn2cccc2)NS(=O)(=O)c2cc(Cl)c(N)c(Cl)c2)CC1 (stereo not drawn)
IC50 [1]: 1260 nM

CC1CCN(C(=O)C(CCn2nccc2C#N)NS(=O)(=O)c2cc(Cl)c(N)c(Cl)c2)CC1 (stereo not drawn)
pIC50 [2]: 5.50 | IC50 [1]: 63.1 nM

CC1CCN(C(=O)C(CCn2ccnc2C#N)NS(=O)(=O)c2cc(Cl)c(N)c(Cl)c2)CC1 (stereo not drawn)
IC50 [1]: 501 nM

CC1CCN(C(=O)C(CCn2ccnc2[N+](=O)[O-])NS(=O)(=O)c2cc(Cl)c(N)c(Cl)c2)CC1 (stereo not drawn)
pIC50 [2]: < 4.70 | pIC50 [3]: 6.60 | pIC50 [28]: 6.10 | pIC50 ([1]; read-out: IC50): 6.16 | pIC50 [29]: 6.10
